Data: patent publication US10906915B2, “Substituted pyrazoloazepin-4-ones and their use as phosphodiesterase inhibitors” (LEO Pharma A/S, priority 2016, dated 2021)
pIC50: −log10 of the molar value.

biological target: human PDE4D catalytic domain (UniProt no. Q08499) (Homo sapiens (Human), UniProt Q08499); assay: PDE4 assay (TR-FRET, FAM-cAMP cleavage); type: biochemical; conditions: human PDE4D catalytic domain; molar concentration giving 50% inhibition of substrate cleavage; read-out: PDE4 IC50 range
Sequence (Q08499 380-740 limits assumed): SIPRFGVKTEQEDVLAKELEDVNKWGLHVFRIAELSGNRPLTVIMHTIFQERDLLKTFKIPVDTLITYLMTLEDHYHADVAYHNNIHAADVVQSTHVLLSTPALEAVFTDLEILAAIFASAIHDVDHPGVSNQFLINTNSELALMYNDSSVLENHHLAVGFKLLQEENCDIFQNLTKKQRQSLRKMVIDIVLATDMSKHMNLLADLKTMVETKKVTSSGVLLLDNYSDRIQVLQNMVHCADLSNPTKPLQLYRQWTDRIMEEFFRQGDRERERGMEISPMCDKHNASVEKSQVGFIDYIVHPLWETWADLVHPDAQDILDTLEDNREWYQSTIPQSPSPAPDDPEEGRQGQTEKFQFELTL
Procedure, shortened: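 Read-out is time-resolved FRET from Tb donor to FAM-AMP captured on trivalent-metal nanoparticles added to stop the reaction. Substrate was a mix of plain and FAM-labelled cAMP, cleaved by human PDE4D catalytic domain ([…]) with titrated compound; IC50 ranges (nM) versus controls.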

Row | SMILES | pIC50
1 | CCc1nn(CCCOC(=O)c2ccccc2F)c2c1C(=O)NCC1(CCOCC1)C2 [Example 19, 3-(3-ethyl-4-oxo-spiro[6,8-dihydro-5H-pyrazolo[4,3-c]azepine-7,4′-tetrahydropyran]-1-yl)propyl 2-fluorobenzoate] | > 7.00
2 | CCc1nn(C[C@@H](C)COC(=O)c2cccc(Cl)c2F)c2c1C(=O)NCC1(CCOCC1)C2 [Example 198, [(2R)-3-(3-ethyl-4-oxo-spiro[6,8-dihydro-5H-pyrazolo[4,3-c]azepine-7,4′-tetrahydropyran]-1-yl)-2-methyl-propyl] 3-chloro-2-fluoro-benzoate] | > 7.00
3 | CCc1nn(C[C@@H](C)COC(=O)c2cc(Cl)cc(C(F)(F)F)c2)c2c1C(=O)NCC1(CCOCC1)C2 [Example 240, [(2R)-3-(3-ethyl-4-oxo-spiro[6,8-dihydro-5H-pyrazolo[4,3-c]azepine-7,4′-tetrahydropyran]-1-yl)-2-methyl-propyl] 3-chloro-5-(trifluoromethyl)benzoate] | > 7.00
4 | CCc1nn(CCCOC(=O)c2cc(F)cc(C#N)c2)c2c1C(=O)NCC1(CCOCC1)C2 [Example 53, 3-(3-ethyl-4-oxo-spiro[6,8-dihydro-5H-pyrazolo[4,3-c]azepine-7,4′-tetrahydropyran]-1-yl)propyl 3-cyano-5-fluoro-benzoate] | > 7.00
5 | CCc1nn(C[C@@H](C)COC(=O)c2ccc(C(F)(F)F)c(Cl)c2)c2c1C(=O)NCC1(CCOCC1)C2 [Example 234, [(2R)-3-(3-ethyl-4-oxo-spiro[6,8-dihydro-5H-pyrazolo[4,3-c]azepine-7,4′-tetrahydropyran]-1-yl)-2-methyl-propyl] 3-chloro-4-(trifluoromethyl)benzoate] | > 7.00
6 | CCc1nn(C[C@@H](C)COC(=O)c2cccc(S(=O)(=O)NC)c2)c2c1C(=O)NCC1(CCOCC1)C2 [Example 228, [(2R)-3-(3-ethyl-4-oxo-spiro[6,8-dihydro-5H-pyrazolo[4,3-c]azepine-7,4′-tetrahydropyran]-1-yl)-2-methyl-propyl] 3-(methylsulfamoyl)benzoate] | > 7.00
7 | CCc1nn(C[C@@H](C)COC(=O)c2ccc(C#N)c(F)c2)c2c1C(=O)NCC1(CCOCC1)C2 [Example 185, [(2R)-3-(3-ethyl-4-oxo-spiro[6,8-dihydro-5H-pyrazolo[4,3-c]azepine-7,4′-tetrahydropyran]-1-yl)-2-methyl-propyl] 4-cyano-3-fluoro-benzoate] | > 7.00
8 | CCc1nn(C[C@@H](C)COC(=O)c2ccc(OC)cc2C(F)(F)F)c2c1C(=O)NCC1(CCOCC1)C2 [Example 229, [(2R)-3-(3-ethyl-4-oxo-spiro[6,8-dihydro-5H-pyrazolo[4,3-c]azepine-7,4′-tetrahydropyran]-1-yl)-2-methyl-propyl] 4-methoxy-2-(trifluoromethyl)benzoate] | > 7.00
9 | CCc1nn(C[C@@H](C)COC(=O)c2cccc(S(=O)(=O)N3CCN(C(C)=O)CC3)c2)c2c1C(=O)NCC1(CCOCC1)C2 [Example 251, [(2R)-3-(3-ethyl-4-oxo-spiro[6,8-dihydro-5H-pyrazolo[4,3-c]azepine-7,4′-tetrahydropyran]-1-yl)-2-methyl-propyl] 3-(4-acetylpiperazin-1-yl)sulfonylbenzoate] | > 7.00
10 | CCc1nn(CCCOC(=O)c2cc(F)ccc2OC)c2c1C(=O)NCC1(CCOCC1)C2 [Example 68, 3-(3-ethyl-4-oxo-spiro[6,8-dihydro-5H-pyrazolo[4,3-c]azepine-7,4′-tetrahydropyran]-1-yl)propyl 5-fluoro-2-methoxy-benzoate] | > 7.00
11 | CCc1nn(CCCOC(=O)c2cccc(C(F)(F)F)c2Cl)c2c1C(=O)NCC1(CCOCC1)C2 [Example 123, 3-(3-ethyl-4-oxo-spiro[6,8-dihydro-5H-pyrazolo[4,3-c]azepine-7,4′-tetrahydropyran]-1-yl)propyl 2-chloro-3-(trifluoromethyl)benzoate] | > 7.00
12 | CCc1nn(C[C@@H](C)COC(=O)c2c(F)cccc2OC)c2c1C(=O)NCC1(CCOCC1)C2 [Example 194, [(2R)-3-(3-ethyl-4-oxo-spiro[6,8-dihydro-5H-pyrazolo[4,3-c]azepine-7,4′-tetrahydropyran]-1-yl)-2-methyl-propyl] 2-fluoro-6-methoxy-benzoate] | > 7.00
13 | CCc1nn(CCCOC(=O)c2cc(Cl)ccc2C)c2c1C(=O)NCC1(CCOCC1)C2 [Example 75, 3-(3-ethyl-4-oxo-spiro[6,8-dihydro-5H-pyrazolo[4,3-c]azepine-7,4′-tetrahydropyran]-1-yl)propyl 5-chloro-2-methyl-benzoate] | > 7.00
14 | CCc1nn(CCCOC(=O)c2ccc(C(F)(F)F)cc2F)c2c1C(=O)NCC1(CCOCC1)C2 [Example 113, 3-(3-ethyl-4-oxo-spiro[6,8-dihydro-5H-pyrazolo[4,3-c]azepine-7,4′-tetrahydropyran]-1-yl)propyl 2-fluoro-4-(trifluoromethyl)benzoate] | > 7.00
15 | CCc1nn(CCCOC(=O)c2ccc(C(F)(F)F)c(F)c2)c2c1C(=O)NCC1(CCOCC1)C2 [Example 110, 3-(3-ethyl-4-oxo-spiro[6,8-dihydro-5H-pyrazolo[4,3-c]azepine-7,4′-tetrahydropyran]-1-yl)propyl 3-fluoro-4-(trifluoromethyl)benzoate] | > 7.00

same assay, conditions: read-out: PDE4 IC50 range

Row | SMILES | pIC50
16 | CCc1nn(CC(C)(C)COC(=O)c2ccc(C(=O)N(C)C)cc2)c2c1C(=O)NCC1(CCOCC1)C2 [Example 331, [3-(3-ethyl-4-oxo-spiro[6,8-dihydro-5H-pyrazolo[4,3-c]azepine-7,4′-tetrahydropyran]-1-yl)-2,2-dimethyl-propyl] 4-(dimethylcarbamoyl)benzoate] | > 7.00
17 | CCc1nn(CC(C)(C)COC(=O)c2ccccc2C(F)(F)F)c2c1C(=O)NCC1(CCOCC1)C2 [Example 303, [3-(3-ethyl-4-oxo-spiro[6,8-dihydro-5H-pyrazolo[4,3-c]azepine-7,4′-tetrahydropyran]-1-yl)-2,2-dimethyl-propyl] 2-(trifluoromethyl)benzoate] | > 7.00
18 | CCc1nn(CC(C)(C)COC(=O)c2ccc(Cl)c(C(F)(F)F)c2)c2c1C(=O)NCC1(CCOCC1)C2 [Example 314, [3-(3-ethyl-4-oxo-spiro[6,8-dihydro-5H-pyrazolo[4,3-c]azepine-7,4′-tetrahydropyran]-1-yl)-2,2-dimethyl-propyl] 4-chloro-3-(trifluoromethyl)benzoate] | > 7.00
19 | CCc1nn(CC(C)(C)COC(=O)c2ccc(S(=O)(=O)CC)cc2)c2c1C(=O)NCC1(CCOCC1)C2 [Example 312, [3-(3-ethyl-4-oxo-spiro[6,8-dihydro-5H-pyrazolo[4,3-c]azepine-7,4′-tetrahydropyran]-1-yl)-2,2-dimethyl-propyl] 4-ethylsulfonylbenzoate] | > 7.00
20 | CCc1nn(CC(C)(C)COC(=O)c2ccc(C(C)=O)cc2)c2c1C(=O)NCC1(CCOCC1)C2 [Example 295, [3-(3-ethyl-4-oxo-spiro[6,8-dihydro-5H-pyrazolo[4,3-c]azepine-7,4′-tetrahydropyran]-1-yl)-2,2-dimethyl-propyl] 4-acetylbenzoate] | > 7.00
21 | CCc1nn(CCCCOC(=O)c2cccc(S(=O)(=O)NC)c2)c2c1C(=O)NCC1(CCOCC1)C2 [Example 372, 4-(3-ethyl-4-oxo-spiro[6,8-dihydro-5H-pyrazolo[4,3-c]azepine-7,4′-tetrahydropyran]-1-yl)butyl 3-(methylsulfamoyl)benzoate] | > 7.00
